# According to patent US20060025419A1, “Imidazoquinoxaline compound for the treatment of melanoma” (priority 2004, published 2006):
# Peptide text beside a SMILES is read from it. * marks the point of attachment. Cbz = O=C(OCc1ccccc1)*; CH2F = FC*
# How the values were obtained:
# [1] = test system: SK-Mel-5 cells; experiment: Nuclear apoptosis (DNA fragmentation) by flow cytometry; type: cell-based, human; conditions: 50 μM, 48 h, p<0.05
# Protocol: FIGS. 4A-4H. […] Paraffin-embedded tumor tissues were subjected to H&E staining (FIGS. 4C & D) and DeadEnd Fluorometric TUNEL-assay for detection of apoptosis (FIGS. 4E & F). The TUNEL-positive cells are visualized in green fluorescence in a red (Propidium Iodide) background by fluorescence microscopy. […] After 36 h incubation, cells were collected and fixed with 1% formaldehyde and 70% ice-cold ethanol. The apoptotic cells were examined using TUNEL-assay and analyzed by flow cytometry through measuring fluorescein-12-dUTP at 520 nm. The apoptotic rate is indicated in each box. Data shown are represented one of three independent experiments. […] Cells were fixed and stained with Propidium iodide. Cell fluorescence was measured by flow cytometry and the data were analyzed using DNA content histogram deconvolution software (Multicycle from Phoenix Flow Systems). The percentage of apoptotic cells with fragmented DNA (PI intensity sub-G0/G1) is indicated at each time point. The experiments were repeated twice, in duplicates for each point (total n=4).
# [2] = test system: SK-Mel-5 cells; experiment: Western blot / confocal analysis of apoptotic proteins in subcellular fractions; type: cell-based, human; conditions: 50 μM with 10 μM BMS-345541, Western blot and confocal microscopy
# Protocol: Subcellular mitochondria and cytoplasm were prepared and subjected to Western blot analysis for Bcl-2 and Bax. […] After exposure, mitochondria were isolated and incubated with 80 μM 3,3′dihexyloxacarbocyanine iodide (DiOC6) at 37° C. for 15 min. Δψm was determined by FACS analysis using 484/530 nm filters within 10 min while gating the forward and sideward scatters on intact mitochondria (FIG. 5C). […] Subcellular extracts were prepared and subjected to Western blot analysis for cytochrome-C and AIF. […] The supernatant was assessed for cytochrome-c release. 200 μM Ca^2+ was used as a positive control.
# The cellular caspase-3 activity in samples was detected as described in Materials and Methods. […] Cells were fixed and stained with propidium iodide staining as described in FIG. 4H. The percentage of cell death was measured with flow cytometry. […] Cytosol was extracted and subjected to Western blot analysis for AIF, cytochrome-c (cyto-C) and actin. Actin was used as a loading control protein. […] Ref-1 was used as a nuclear marker protein. All data shown here were from three independent experiments. […] SK-Mel-5 cells were exposed to 10 μM BMS and/or pan-caspase inhibitor (Z-VAD-fmk, 50 μM).
# Proteins from cell extracts were separated by 12% SDS-PAGE and electrophoretically transferred to nitrocellulose membranes. Nonspecific binding was blocked with 5% milk in TBST buffer (4 mM Tris base, 100 mM NaCl, pH 7.5, 0.05% Tween), incubated with the indicated primary antibodies with a dilution of 1:1000 at room temperature for 2 h or 4° C. for overnight and then with horseradish peroxidase-conjugated secondary antibody for 1 h. Blots were visualized by enhanced chemiluminescence assay.
# The Mitochondria Isolation Kit (Pierce, Rockford, Ill.) was used for isolation of mitochondria from cultured melanoma cells according to the manufacture's instruction for the Reagent-based method. Briefly, cells (2×10^7) were collected, washed with PBS buffer and resuspended in 0.8 ml of Reagent A on ice for 2 min. 10 μl of Reagent B was added and samples were kept on ice, with vortexing very minute for 5 min. After addition of 0.8 ml of Reagent C, the mixture was centrifuged at 700×g for 10 min to remove the cell debris and nuclei. The supernatant was then centrifuged at 3,000×g for 15 min. The pellet (mitochondria) was washed with Reagent C. The purity of mitochondria was determined by Western blotting with β-actin, where β-actin negative preparation were fully to be pure. The supernatant (cytosolic fraction) was further cleared by centrifugation at 12,000×g for 15 min.
# Cells were incubated with the anti-AIF polyclonal antibody for 2 h. Cells were washed twice and incubated with the secondary antibody conjugated with FITC for 1 h.
# [3] = test system: caspase-3; experiment: Caspase-3 activity assay (Ac-DEVD-pNA) in cytosol extracts; type: cell-based, human; conditions: 50 μM pan-caspase inhibitor, 10 μM BMS-345541
# [4] = test system: human melanoma grafts; experiment: Tumor growth in tumor-bearing mice treated with temozolomide; type: in vivo; conditions: daily 60 mg/kg orally
SMILES,cells protected from nuclear apoptosis induced by 10 μM BMS-345541 [1],influence on AIF translocation to nucleus and nuclear condensation [2],block of BMS-345541 induction of caspase-3 activity [3],tumor growth inhibition [4]
"COC(=O)C[C@H](NC(=O)[C@H](C)NC(=O)[C@@H](NC(=O)OCc1ccccc1)C(C)C)C(=O)CF [Z-VAD-fmk, reference compound] (Cbz-Val-Ala-Asp(OMe)-CH2F)",11%,failed to influence,87.2%,–
Cn1nnc2c(C(N)=O)ncn2c1=O [temozolomide],–,–,–,81%
